For data set [1], the system named is MG87RET murine fibroblasts. Briefly: Cell viability, CelTiterGlo (FIG. 8). Format: cell-based. The settings on record: concentrations above 2 μM, 48 hours. As for the experimental part: The test compounds were transferred into in 384-well culture plate using Echo acoustic dispenser (Labcyte Inc.) in 2.5-125 nl volume. Trypsinized MG87RET murine fibroblasts were seeded at 20 000 cells/ml (500 cells/well) in the presence of each compound dissolved in DMSO at the indicated concentration. After brief mixing on a horizontal shaker, the plates were centrifuged and transferred into the incubator. Two days (48 hours) after addition of cells to compounds, the viability of the cells was evaluated using CelTiterGlo reagent (Promega).

The subject of data set [2] is GFRα3/RET-expressing reporter cell line. The data set can be described thus: Reporter-gene luciferase activity assay, dose-response (FIG. 5). The data set is classed as cell-based, human. To be noted: GFRα3/RET cells; 1-50 μM, 24 h. The source says: Full-length flag-tagged rat Gfrα1 cDNA (Leppänen et al., 2004) subcloned into in pcDNA3 (Invitrogen). Full-length human GFRα1 cDNA (Sidorova et al., unpublished) subcloned in pcDNA6 (Invitrogen). Full-length human GFRα3 cDNA (Wang et al., 2006). Full-length human RET (long isoform) (Runeberg-Roos et al., 2007) in pCR3.1 (Invitrogen). The MAPK activation detection system (Baloh et al., 2000) and PathDetect Elk-1 (Stratagene) both of which include two plasmids. First one constitutively expresses MAPK pathway specific fusion transactivator, that consists of activation domain of Elk-1 and DNA-binding domain of the yeast GAL4 protein (Gal4-Elk1). The other plasmid, Gal4-Luc, carries luciferase gene under the control of a synthetic promoter containing the yeast GAL4 binding sequences.
(§1) Cells were plated on 96-well plates (or 384-well) in cell density 20 000 (or 5 000 for 384-well format) cells per well in DMEM, 10% FBS, 100 μg/ml Normocin, 2 μg/ml puromycin, 500 μg/ml of G418, 15 mM HEPES, pH 7.2 one day before assay. The following day, the compounds were added to a final concentration of 1-50 μM. Structures of the compounds are shown in the description of FIG. 5, above. Cells were allowed to produce luciferase for 24 h, then lysed in 20 μl of 1×Cell culture lysis reagent (Promega) and freeze-thawed once to ensure complete lysis. Then 5 μl of the lysate was mixed (on ice) with 20 μl of luciferase assay substrate (Promega) in a well of black Isoplate (PerkinElmer). Luminescence was counted on MicroBeta 2 counter (PerkinElmer) twice. Data are presented as fold induction, where the corresponding concentration of DMSO was used as a reference.

The target of a further data set is T1, GFRα3/RET (Homo sapiens, UniProt O60609+P07949).
T1 construct: Full-length human GFRα3 cDNA (Wang et al., 2006); expressed in transfected cells; host or cells: MG87RET murine fibroblasts transiently transfected with GFRα3
The data set can be described thus: RET phosphorylation by BT compounds, IP and Western blotting (FIG. 6B). The data set is classed as cell-based. To be noted: 100 μM, 15 min; MG87 RET fibroblasts transfected with GFRα3. As for the experimental part:
(§2) MG87RET cells were plated on 35 mm tissue culture dishes the day before the experiment. Cells were transfected with GFRα1, GFRα3 or with an vector encoding for GFP. On the day of the experiment cells were starved for 4 hours in serum-free DMEM and stimulated with the investigated compounds (structures shown in the description of FIG. 6, above) at 100 μM concentration or with 100 ng/ml of GDNF or ARTN (positive control) for 15 min. Then cells were washed once with ice-cold PBS containing 1 mM Na3VO4 and lysed on ice in 1 ml per well of RIPA-modified buffer (50 mM Tris-HCl, pH 7.4, 150 mM NaCl, 1 mM EDTA, 1% NP-40, 1% TX-100, 10% glycerol, EDTA-free protease inhibitor cocktail (Roche), 1 mM Na3VO4, 2.5 mg/ml of sodium deoxycholate, 1 mM PMSF. Ret was immunoprecipitated by anti-RET C-20 antibodies (Santa-Cruz Biotechnology, Inc.). Precipitated proteins were resolved on 7.5% SDS-PAGE and then transferred onto a nitrocellulose membrane. Membrane was blocked for 15 min at room temperature by 10% nonfat dry milk in TBS-T and probed with anti-phosphotyrosine antibodies (clone 4G10, Upstate Biotechnology) diluted 1:1000 in TBS-T containing 3% nonfat dry milk for 2 hours at room temperature. The membranes were washed 3 times for 5 min in TBS-T and incubated in the 1:3000 solution of secondary anti-mouse antibodies conjugated with HRP (DAKO) diluted in TBS-T containing 3% nonfat dry milk for 45 min at room temperature. Membranes were washed with TBS-T for 5×10 min. Stained bands were visualized with ECL reagent (Pierce) using LAS3000 imaging program. To confirm equal loading of the proteins, membranes were probed with anti-RET C-20 antibodies (1:500, Santa-Cruz Biotechnology, inc.) after stripping. We used secondary anti-goat antibodies conjugated with HRP (1:1500, DAKO) to detect C-20.
(A western blot detects proteins with antibodies after separation by electrophoresis.)

Data set [3] deals with RET-expressing reporter cell line (RET alone). Briefly: Reporter-gene luciferase activity assay, dose-response (FIG. 5). The data set is classed as cell-based. To be noted: cells expressing RET alone; 1-50 μM, 24 h. As for the experimental part:
(§3) Generation of stable cell lines. MG87RET murine fibroblast were plated on […] dishes and transfected with 4 μg of G4-Luc, Gal4-Elk (Baloh et al., 2000) and GFRα1 expressing plasmid (“αLUC” cells) or empty vector (“NOα” cells) containing neomycin-resistance gene in ratio 4:1:1 using Lipofectamine 2000 (Invitrogen) for DNA delivery as described by manufacturer. The following day, cells were trypsinized and plated in low density on 10-cm tissue culture dishes. Stable transformants were selected in the presence of 500-750 μg/ml geneticin (Invitrogen). Established cell lines were maintained in DMEM, 10% fetal bovine serum (FBS), 100 μg/ml Normocin (Invivogene), 2 μg/ml of puromycin, 500 μg/ml of geneticin, 15 mM HEPES, pH 7.2. Pathdetect Elk-1 system and human GFRα1-expressing plasmid (“Strat-Luc” cells) or empty vector (control cell line “NOStratis”) cells were selected and maintained in the DMEM, 10% FBS, 100 μg/ml Normocin (Invivogene), 2 μg/ml of puromycin, 500 μg/ml of G418, 2 μg/ml of blasticidin S, 15 mM HEPES, pH 7.2.
as §1

Data set [4] concerns GFRα1/RET-expressing cells. The description is as above. The data set is classed as cell-based. The settings on record: 1-50 μM, 24 h. As for the experimental part: as §3, §1
For another data set, the target named is T2, GFRα1/RET (Homo sapiens, UniProt P07949+P56159).
T2 construct: Full-length human GFRα1 cDNA (Sidorova et al., unpublished) subcloned in pcDNA6; expressed in transfected cells; host or cells: MG87RET murine fibroblasts transiently transfected with GFRα1
Briefly: RET phosphorylation by BT compounds, IP and Western blotting (FIG. 6A). To be noted: 100 μM, 15 min; MG87 RET fibroblasts transfected with GFRα1. Format: cell-based. As for the experimental part: as §2

T1 sequence (O60609 32-374 limits assumed): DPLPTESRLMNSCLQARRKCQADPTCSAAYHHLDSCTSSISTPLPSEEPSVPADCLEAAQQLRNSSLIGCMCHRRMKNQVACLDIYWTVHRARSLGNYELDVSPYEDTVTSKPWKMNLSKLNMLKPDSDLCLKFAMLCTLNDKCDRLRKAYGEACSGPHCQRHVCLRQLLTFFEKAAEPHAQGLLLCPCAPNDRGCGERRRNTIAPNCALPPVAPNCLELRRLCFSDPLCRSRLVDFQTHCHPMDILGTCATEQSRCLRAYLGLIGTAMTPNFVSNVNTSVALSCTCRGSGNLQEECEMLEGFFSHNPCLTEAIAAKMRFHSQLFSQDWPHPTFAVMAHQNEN
T1 sequence (P07949 29-1114): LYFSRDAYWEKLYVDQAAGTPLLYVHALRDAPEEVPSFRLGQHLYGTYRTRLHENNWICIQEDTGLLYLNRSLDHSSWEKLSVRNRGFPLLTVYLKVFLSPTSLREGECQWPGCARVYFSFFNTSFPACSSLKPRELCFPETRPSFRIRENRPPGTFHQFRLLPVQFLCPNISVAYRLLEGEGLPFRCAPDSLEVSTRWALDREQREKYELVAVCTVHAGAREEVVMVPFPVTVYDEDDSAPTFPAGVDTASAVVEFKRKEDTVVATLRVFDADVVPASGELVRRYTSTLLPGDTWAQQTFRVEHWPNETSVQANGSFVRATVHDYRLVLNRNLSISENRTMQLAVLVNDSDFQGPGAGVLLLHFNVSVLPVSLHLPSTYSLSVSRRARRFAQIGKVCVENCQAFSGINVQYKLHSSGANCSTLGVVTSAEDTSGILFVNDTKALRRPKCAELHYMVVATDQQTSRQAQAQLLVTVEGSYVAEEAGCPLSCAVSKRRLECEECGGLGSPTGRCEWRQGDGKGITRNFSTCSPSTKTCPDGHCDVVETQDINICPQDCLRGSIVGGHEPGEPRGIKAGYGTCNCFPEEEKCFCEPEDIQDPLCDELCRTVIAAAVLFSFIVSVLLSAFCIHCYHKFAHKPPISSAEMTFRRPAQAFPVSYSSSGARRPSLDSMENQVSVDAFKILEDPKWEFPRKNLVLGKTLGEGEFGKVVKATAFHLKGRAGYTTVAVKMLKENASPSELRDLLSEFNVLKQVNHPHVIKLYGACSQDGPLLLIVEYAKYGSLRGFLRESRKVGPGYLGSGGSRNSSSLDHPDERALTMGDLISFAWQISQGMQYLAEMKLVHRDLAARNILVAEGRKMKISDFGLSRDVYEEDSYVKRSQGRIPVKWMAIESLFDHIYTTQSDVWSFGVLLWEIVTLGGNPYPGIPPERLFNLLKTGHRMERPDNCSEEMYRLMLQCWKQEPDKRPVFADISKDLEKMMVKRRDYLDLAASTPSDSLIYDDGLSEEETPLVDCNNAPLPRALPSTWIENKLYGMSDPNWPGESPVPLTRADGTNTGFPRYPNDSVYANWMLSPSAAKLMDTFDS
T2 sequence (P56159 25-429 limits assumed, species assumed): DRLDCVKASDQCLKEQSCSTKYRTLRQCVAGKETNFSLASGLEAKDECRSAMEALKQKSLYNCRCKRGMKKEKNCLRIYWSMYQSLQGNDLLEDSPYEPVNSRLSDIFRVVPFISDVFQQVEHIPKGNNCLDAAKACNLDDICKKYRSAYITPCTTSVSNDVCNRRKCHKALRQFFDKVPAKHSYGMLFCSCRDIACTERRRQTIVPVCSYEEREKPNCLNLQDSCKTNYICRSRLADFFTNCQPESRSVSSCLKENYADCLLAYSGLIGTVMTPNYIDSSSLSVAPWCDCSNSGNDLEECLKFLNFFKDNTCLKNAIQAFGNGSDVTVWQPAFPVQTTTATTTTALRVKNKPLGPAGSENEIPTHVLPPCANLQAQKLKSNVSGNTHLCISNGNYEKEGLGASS
T2 sequence (P07949 29-1114, species assumed): as the sequence (P07949 29-1114) above

Turning to `CCN(CC)CCCC(C)Nc1cc(/C=C/c2ccccc2Cl)nc2cc(Cl)ccc12` (stereo not drawn) [BT10], the “toxicity (cell viability)” value in data set [1] is given as “significant toxicity”.
In the case of `COc1ccc(S(=O)(=O)N2CCC(Cc3ccccc3)CC2)cc1N1CCN(C(=O)c2cc(F)ccc2C(F)(F)F)CC1` [BT17], the “induction of luciferase expression” value is recorded as “in a dose-dependent manner induce luciferase expression” in data set [2], “No significant effect” in data set [3] and “in a dose-dependent manner induce luciferase expression” in data set [4]. Besides, on GFRα3/RET, the “RET phosphorylation via GFRα3” value is on record as “likely the weaker GFRα3/RET agonists”. In addition, the “RET phosphorylation via GFRα1” value at GFRα1/RET is “likely the weaker GFRα1/RET agonists”.

For the origin of these results see patent US8901129B2, “Methods of facilitating neural cell survival using GDNF family ligand (GFL) mimetics or RET signaling pathway activators” (GeneCode AS, priority 2009, dated 2014).
